Data on 4 compounds can be found in PMC7403315, “Cyclic peptide FXII inhibitor provides safe anticoagulation in a thrombosis model and in artificial lungs” (Nature Communications, 2020).

Values joined by “and” are separate entries in the source; they are usually repeats but may differ in a detail not shown here. Equal values may be shown once. Read-outs that look alike come from different tables or passages of the source. Residues, ends and D or L forms follow the SMILES beside them.

The Ki is a measure of affinity in units of concentration, obtained from inhibition or displacement.

In one test the target is T1, Mouse α-FXIIa (Mus musculus, UniProt Q80YC5).
T1 construct: Mouse α-FXIIa; purchased Molecular Innovations MFXIIA
T1 sequence (Q80YC5 355-597 limits assumed): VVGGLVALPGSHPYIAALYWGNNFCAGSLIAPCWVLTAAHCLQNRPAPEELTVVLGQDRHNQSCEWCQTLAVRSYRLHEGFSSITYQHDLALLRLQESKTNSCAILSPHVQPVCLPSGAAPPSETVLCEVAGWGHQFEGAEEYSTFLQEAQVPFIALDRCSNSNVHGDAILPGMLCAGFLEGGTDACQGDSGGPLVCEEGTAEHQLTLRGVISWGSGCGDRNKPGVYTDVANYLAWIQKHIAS
T1 sequence (Q80YC5 20-354 limits assumed): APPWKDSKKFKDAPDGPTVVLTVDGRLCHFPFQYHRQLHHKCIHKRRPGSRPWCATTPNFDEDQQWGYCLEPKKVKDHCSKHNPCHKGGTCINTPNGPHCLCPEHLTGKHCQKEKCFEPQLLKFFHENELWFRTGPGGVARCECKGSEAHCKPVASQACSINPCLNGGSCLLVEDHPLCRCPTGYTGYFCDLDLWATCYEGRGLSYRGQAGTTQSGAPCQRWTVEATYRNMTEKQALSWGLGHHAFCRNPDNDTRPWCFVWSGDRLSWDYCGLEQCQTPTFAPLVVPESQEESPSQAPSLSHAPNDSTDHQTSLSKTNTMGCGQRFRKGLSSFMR
The test is described as follows: FXIIa protease inhibition assay with fluorogenic substrate Boc-Gln-Gly-Arg-AMC. Type of test: biochemical. The following applies: purified peptide without coumarin label; read-out: Ki mouse FXIIa. On the procedure:
(§1) In order to test the inhibitory activity of peptides without prior purification, we developed the following method. […] After solid-phase peptide synthesis, cleavage, and ether precipitation, the peptides were chemically cyclized and their Ki values were determined in a FXIIa activity assay using a fluorogenic substrate.
(§2) Protease inhibition assays
(§3) The inhibitory activity of peptides was determined by measuring the residual protease activity with a fluorogenic substrate. The assay was performed in buffer containing 10 mM Tris-Cl, pH […]
(§4) 1% (v/v) DMSO in a volume of 150 µl. FXIIa activity was measured with the fluorogenic substrate Boc-Gln-Gly-Arg-AMC (Bachem) at a final concentration of 50 µM. Mouse α-FXIIa (Molecular Innovations cat # MFXIIA) and human β-FXIIa (Molecular Innovations cat # HFXIIAB) were used at final concentrations of 0.4 nM. The reaction was pipetted as follows: 50 µl of bicyclic peptide in assay buffer were added to 50 µl of FXIIa in assay buffer and incubated for 10 minutes at 25°C before 50 µl of 150 µM fluorogenic substrate in assay buffer were added to measure the residual protease activity with an Infinite M200Pro fluorescence plate reader (excitation at 368 nm, emission at 467 nm; Tecan) for a period of 30 minutes with a read every minute at 25°C. The Tecan software i-control (version 1.1) was used for data analysis. Stock solutions of 1 mM bicyclic peptide were prepared by either dissolving the unpurified cyclization reaction with water or by dissolving purified and lyophilized peptide in water. The bicyclic peptides were serially diluted two-fold using assay buffer. Sigmoidal curves were fitted to the data using the following dose response equation (1), wherein x = peptide concentration, y = % protease activity, and p = Hill slope. IC50 values were derived from the fitted curve.
(§5) The inhibition constants (Ki) were calculated according to the equation of Cheng and Prusoff, Ki = IC50/(1+([S]0/Km), wherein IC50 is the functional strength of the inhibitor, [S]0 is the total substrate concentration, and Km is the Michaelis-Menten constant. […]
(§6) the substrate Boc-Gln-Gly-Arg-AMC. […]

In another test the target is T2, human β-FXIIa (Homo sapiens, UniProt P00748).
T2 construct: human β-FXIIa (Molecular Innovations cat #); purchased Molecular Innovations HFXIIAB; host or cells: human blood
Described as above. Type of test: biochemical. On the procedure: as §1, §2, §3, §4, §5, §6

[1] abbreviates: purified peptide without coumarin label, read-out: Ki human FXIIa.

T2 sequence (P00748 373-615 limits assumed, other chains not shown): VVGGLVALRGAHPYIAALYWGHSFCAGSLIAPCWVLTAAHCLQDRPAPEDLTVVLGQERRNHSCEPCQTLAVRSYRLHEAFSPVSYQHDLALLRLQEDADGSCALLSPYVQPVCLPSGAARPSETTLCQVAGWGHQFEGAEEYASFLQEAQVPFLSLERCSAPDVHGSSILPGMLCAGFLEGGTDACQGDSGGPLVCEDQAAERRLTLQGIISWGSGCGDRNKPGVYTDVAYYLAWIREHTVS

For `CC(C)C[C@@H]1NC(=O)[C@H](CCC(N)=O)NC(=O)[C@H](Cc2c[nH]cn2)NC(=O)[C@@H]2CSCCC(=O)N3CN(CN(C3)C(=O)CCSC[C@H](NC(=O)[C@@H](CO)NC(=O)[C@H](N)CCCNC(=N)N)C(=O)N[C@@H](Cc3ccc(F)cc3)C(=O)N[C@@H](CCCNC(=N)N)C(=O)N[C@@H](CC(C)C)C(=O)N3CCC[C@H]3C(=O)N2)C(=O)CCSC[C@@H](C(=O)N[C@@H](CCCNC(=N)N)C(N)=O)NC(=O)[C@H](CCCNC(=N)N)NC1=O` [Arg11βhArg reverted] (HELM PEPTIDE1{[dR].[dS].C.[O=C([C@H](Cc1ccc(F)cc1)N[*:1])[*:2]].R.L.P.C.H.Q.L.R.C.R.[am]}|CHEM1{[O=C(CC[*:1])N1CN(C(=O)CC[*:2])CN(C(=O)CC[*:3])C1]}$PEPTIDE1,CHEM1,3:R3-1:R1|PEPTIDE1,CHEM1,8:R3-1:R2|PEPTIDE1,CHEM1,13:R3-1:R3$$$V2.0), the values for the Ki on Mouse α-FXIIa and at human β-FXIIa (setting [1]) were 0.9 ± 0.4 nM and 0.51 ± 0.1 nM, respectively.

In the case of `CC(C)C[C@@H]1NC(=O)[C@H](CCC(N)=O)NC(=O)[C@H](Cc2c[nH]cn2)NC(=O)[C@@H]2CSCCC(=O)N3CN(CN(C3)C(=O)CCSC[C@H](NC(=O)[C@@H](CO)NC(=O)[C@H](N)CCCNC(=N)N)C(=O)N[C@@H](Cc3ccccc3)C(=O)N[C@@H](C)C(=O)N[C@@H](CC(C)C)C(=O)N3CCC[C@H]3C(=O)N2)C(=O)CCSC[C@@H](C(N)=O)NC(=O)[C@H](CCCNC(=N)N)NC1=O` [FXII901] (HELM PEPTIDE1{[dR].[dS].C.F.A.L.P.C.H.Q.L.R.C.[am]}|CHEM1{[O=C(CC[*:1])N1CN(C(=O)CC[*:2])CN(C(=O)CC[*:3])C1]}$PEPTIDE1,CHEM1,3:R3-1:R1|PEPTIDE1,CHEM1,8:R3-1:R2|PEPTIDE1,CHEM1,13:R3-1:R3$$$V2.0), at human β-FXIIa (negative control peptide, read-out: Ki FXIIa), the Ki amounted to 39000 ± 14000 nM.

With `CC(C)C[C@@H]1NC(=O)[C@H](CCC(N)=O)NC(=O)[C@H](CCCNC(=N)N)NC(=O)[C@@H]2CSCCC(=O)N3CN(CN(C3)C(=O)CCSC[C@H](NC(=O)[C@@H](N)CCCNC(=N)N)C(=O)N[C@@H](Cc3ccccc3)C(=O)N[C@@H](CCCNC(=N)N)C(=O)N[C@@H](CC(C)C)C(=O)N3CCC[C@H]3C(=O)N2)C(=O)CCSC[C@@H](C(=O)N[C@@H](CCCNC(=N)N)C(N)=O)NC(=O)C[C@H](CCCNC(=N)N)NC1=O` [FXII700], the “Residual activity of human FXIIa” value was 91.4189% on human β-FXIIa (inhibitor 0.0976562 nM, 97.66 pM); 81.1824% on human β-FXIIa (inhibitor 0.195312 nM, 0.000195312 µM); 72.286% on human β-FXIIa (inhibitor 0.390625 nM, 0.000390625 µM); 58.8964% at human β-FXIIa (inhibitor 0.78125 nM, 0.00078125 µM); 43.9302% at human β-FXIIa (inhibitor 1.5625 nM, 0.0015625 µM); 29.5158% and 36.4925% on human β-FXIIa (inhibitor 3.125 nM, 0.003125 µM). For the same compound, the “Residual activity of human FXIIa” value was 18.0743% and 21.4703% on human β-FXIIa (inhibitor 6.25 nM, 0.00625 µM); 10.9718% and 11.488% on human β-FXIIa (inhibitor 12.5 nM, 0.0125 µM); 4.39% and 3.29% on human β-FXIIa (inhibitor 50 nM, 0.05 µM); 1.025% and 3.134% and 1.703% on human β-FXIIa (inhibitor 100 nM, 0.1 µM). Also, at human β-FXIIa (inhibitor 0.0976562 nM, read-out: Residual activity of human FXIIa), the remaining activity at 97.66 pM is 93.2%. Besides, on human β-FXIIa (inhibitor 0.195312 nM, read-out: Residual activity of human FXIIa), the remaining activity at 0.000195312 µM came out at 90.3%. Moreover, the remaining activity at 0.000390625 µM on human β-FXIIa (inhibitor 0.390625 nM, read-out: Residual activity of human FXIIa) was determined as 82.1%. Moreover, the remaining activity at 0.00078125 µM on human β-FXIIa (inhibitor 0.78125 nM, read-out: Residual activity of human FXIIa) was found to be 69.4%. In addition, at human β-FXIIa (inhibitor 1.5625 nM, read-out: Residual activity of human FXIIa), the remaining activity at 0.0015625 µM was 53.9%. Besides, the remaining activity at 0.003125 µM at human β-FXIIa (inhibitor 3.125 nM, read-out: Residual activity of human FXIIa) worked out at 34.3%. Moreover, the remaining activity at 0.00625 µM at human β-FXIIa (inhibitor 6.25 nM, read-out: Residual activity of human FXIIa) worked out at 20.1%. For the same compound, the remaining activity at 0.0125 µM at human β-FXIIa (inhibitor 12.5 nM, read-out: Residual activity of human FXIIa) was found to be 10.6%. The remaining activity at […] on human β-FXIIa (inhibitor 25 nM, read-out: Residual activity of human FXIIa) worked out at 4.82%. For the same compound, the remaining activity at 0.05 µM at human β-FXIIa (inhibitor 50 nM, read-out: Residual activity of human FXIIa) amounted to 2.6%. Further, on human β-FXIIa (inhibitor 200 nM, read-out: Residual activity of human FXIIa), the remaining activity at 0.2 µM is 0.731%. For the same compound, the remaining activity at 0.4 µM at human β-FXIIa (inhibitor 400 nM, read-out: Residual activity of human FXIIa) is 0.3%. For the same compound, on human β-FXIIa (setting [1]), the Ki is 1.5 ± 0.1 nM.

`CC(C)C[C@@H]1NC(=O)[C@H](CCC(N)=O)NC(=O)[C@H](CCCNC(=N)N)NC(=O)[C@@H]2CSCCC(=O)N3CN(CN(C3)C(=O)CCSC[C@H](NC(=O)[C@@H](N)CCCNC(=N)N)C(=O)N[C@@H](Cc3ccc(F)cc3)C(=O)N[C@@H](CCCNC(=N)N)C(=O)N[C@@H](CC(C)C)C(=O)N3CCC[C@H]3C(=O)N2)C(=O)CCSC[C@@H](C(=O)N[C@@H](CCCNC(=N)N)C(N)=O)NC(=O)[C@H](CCCNC(=N)N)NC1=O` [FXII800]: the “Residual activity of human FXIIa” value at human β-FXIIa (inhibitor 0.12207 nM, 0.00012207 µM) was 86.6295% and 91.1755%; at human β-FXIIa (inhibitor 0.244141 nM, 0.000244141 µM), 82.4999% and 82.653%; at human β-FXIIa (inhibitor 0.488281 nM, 0.000488281 µM) it was 69.0437% and 70.79%; on human β-FXIIa (inhibitor 1.95312 nM, 0.00195312 µM), 33.1082% and 35.3323%; on human β-FXIIa (inhibitor 3.90625 nM, 0.00390625 µM), 19.4631% and 21.6747%; at human β-FXIIa (inhibitor 7.8125 nM, 0.0078125 µM) it was 10.6116% and 10.9279%. The “Residual activity of human FXIIa” value is 6.273% and 6.117% on human β-FXIIa (inhibitor 15.625 nM, 0.015625 µM); 3.754% and 3.106% at human β-FXIIa (inhibitor 31.25 nM, 0.03125 µM); 2.455% and 1.836% on human β-FXIIa (inhibitor 62.5 nM, 0.0625 µM); 1.461% and 1.1009% on human β-FXIIa (inhibitor 125 nM, 0.125 µM); 50.5477% and 54.5303% on human β-FXIIa (inhibitor 0.976562 / 0.976563 nM, 0.000976563 µM). Besides, on human β-FXIIa (inhibitor 0.12207 nM, read-out: Residual activity of human FXIIa), the remaining activity at 0.00012207 µM amounted to 94.2%. The remaining activity at 0.000244141 µM on human β-FXIIa (inhibitor 0.244141 nM, read-out: Residual activity of human FXIIa) is 87%. Besides, the remaining activity at 0.000488281 µM at human β-FXIIa (inhibitor 0.488281 nM, read-out: Residual activity of human FXIIa) was 70.3%. In addition, the remaining activity at 0.00195312 µM at human β-FXIIa (inhibitor 1.95312 nM, read-out: Residual activity of human FXIIa) amounted to 31.8%. Also, at human β-FXIIa (inhibitor 3.90625 nM, read-out: Residual activity of human FXIIa), the remaining activity at 0.00390625 µM amounted to 16.9%. Also, the remaining activity at 0.0078125 µM on human β-FXIIa (inhibitor 7.8125 nM, read-out: Residual activity of human FXIIa) came out at 9.32%. Also, the remaining activity at 0.015625 µM on human β-FXIIa (inhibitor 15.625 nM, read-out: Residual activity of human FXIIa) was found to be 6.19%. In addition, the remaining activity at 0.03125 µM on human β-FXIIa (inhibitor 31.25 nM, read-out: Residual activity of human FXIIa) came to 2.96%. Moreover, the remaining activity at 0.0625 µM on human β-FXIIa (inhibitor 62.5 nM, read-out: Residual activity of human FXIIa) came to 1.51%. In addition, the remaining activity at 0.125 µM on human β-FXIIa (inhibitor 125 nM, read-out: Residual activity of human FXIIa) came to 1.19%. Also, on human β-FXIIa (inhibitor 0.976562 / 0.976563 nM, read-out: Residual activity of human FXIIa), the remaining activity at 0.000976563 µM worked out at 50.5%. Further, at human β-FXIIa (setting [1]), the Ki is 0.84 ± 0.03 nM.
